The text below walks through data of patent EP2692332A2, “Composition for the treatment of callus, corns, moles, telangiectasias, and psoriasis” (Unigroup ApS, priority 2012, dated 2014).

Each structure is given as a SMILES string.

The series is classed as physicochemical. To be noted: at higher concentrations than salicylic acid.

In the case of `O=CO` [formic acid], the “miscibility with ethyl lactate” value is “miscible”.
